Source: patent US10508120B2, “TYK2 inhibitors and uses thereof” (Nimbus Lakshmi, Inc., priority 2017, dated 2019)

Target: human TYK2 (JH2domain-pseudokinase) (Homo sapiens (Human), UniProt P29597)
Test: TYK2 JH2 Domain Binding Assay (KINOMEscan)
Protocol: Binding constants for compounds of the present invention against the JH2 domain were determined by the following protocol for a KINOMEscan® assay (DiscoveRx). A fusion protein of a partial length construct of human TYK2 (JH2domain-pseudokinase) (amino acids G556 to D888 based on reference sequence NP_003322.3) and the DNA binding domain of NFkB was expressed in transiently transfected HEK293 cells. From these HEK 293 cells, extracts were prepared in M-PER extraction buffer (Pierce) in the presence of Protease Inhibitor Cocktail Complete (Roche) and Phosphatase Inhibitor Cocktail Set II (Merck) per manufacturers' instructions. The TYK2 (JH2domain-pseudokinase) fusion protein was labeled with a chimeric double-stranded DNA tag containing the NFkB binding site (5′-[…]-3′) fused to an amplicon for qPCR readout, which was added directly to the expression extract (the final concentration of DNA-tag in the binding reaction is 0.1 nM).
The liganded beads were blocked with excess biotin and washed with blocking buffer (SeaBlock (Pierce), 1% BSA, 0.05% Tween 20, 1 mM DTT) to remove unbound ligand and to reduce nonspecific binding.
Extracts were used directly in binding assays without any enzyme purification steps at a ≥10,000-fold overall stock dilution (final DNA-tagged enzyme concentration <0.1 nM). Extracts were loaded with DNA-tag and diluted into the binding reaction in a two step process. First extracts were diluted 1:100 in 1× binding buffer (PBS/0.05% Tween 20/10 mM DTT/0.1% BSA/2 μg/ml sonicated salmon sperm DNA) containing 10 nM DNA-tag. This dilution was allowed to equilibrate at room temperature for 15 minutes and then subsequently diluted 1:100 in 1× binding buffer. […] Kds were determined using an 11-point 3-fold compound dilution series with three DMSO control points. […] The compounds were then diluted directly into the assays such that the final concentration of DMSO was 0.9%. All reactions performed in polypropylene 384-well plates. Each was a final volume of 0.02 mL. Assays were incubated with shaking for 1 hour at room temperature. Then the beads were pelleted and washed with wash buffer (1×PBS, 0.05% Tween 20) to remove displaced kinase and test compound. […] The qPCR protocol consisted of a 10 minute hot start at 95° C., followed by 35 cycles of 95° C. for 15 seconds, 60° C. for 1 minute.
Kds were determined using an 11-point 3-fold compound dilution series with three DMSO control points. […] The compounds were then diluted directly into the assays such that the final concentration of DMSO was 0.9%. The Kds were determined using a compound top concentration of 30,000 nM. Kd measurements were performed in duplicate.
Binding constants (Kds) were calculated with a standard dose-response curve using the Hill equation: […]
The Hill Slope was set to −1.

Sequence of human TYK2 (JH2domain-pseudokinase) (P29597 556-888): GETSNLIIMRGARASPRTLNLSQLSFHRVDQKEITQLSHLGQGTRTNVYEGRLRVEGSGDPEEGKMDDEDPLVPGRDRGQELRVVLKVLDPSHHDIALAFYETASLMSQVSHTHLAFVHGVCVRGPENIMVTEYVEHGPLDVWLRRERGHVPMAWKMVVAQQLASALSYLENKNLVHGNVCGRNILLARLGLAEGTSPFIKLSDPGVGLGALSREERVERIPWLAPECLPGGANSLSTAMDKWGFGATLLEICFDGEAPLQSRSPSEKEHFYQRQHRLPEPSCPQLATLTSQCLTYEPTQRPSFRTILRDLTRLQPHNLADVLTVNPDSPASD

| Kd | Compound |
| --- | --- |
| < 0.2 nM | CNc1cc(Nc2cccn([C@H]3CC[C@@H]3O)c2=O)nc2c(C(=O)N[C@@H]3CCC[C@@H](OC)C3)cnn12 [I-1252] |
| 0.2 to 1 nM | CNc1cc(Nc2cccn(C3CC(F)(F)C3)c2=O)nc2c(C(=O)N[C@H]3CC[C@@H]3O)cnn12 [I-1199] |
| 1 to 10 nM | CNc1cc(-c2cn([C@@H]3CCCOC3)c3ncccc23)nc2c(C(=O)N[C@H]3COC[C@H]3O)cnn12 [I-1185] |
| < 0.2 nM | CNc1cc(Nc2cccn(C(C)C)c2=O)nc2c(C(=O)N[C@@H]3CCC[C@@](C)(OC)C3)cnn12 [I-1235] |
| 0.2 to 1 nM | CNc1cc(-c2cn([C@@H]3CCCOC3)c3ncccc23)nc2c(C(=O)N[C@H]3COC[C@H]3O)cnn12 [I-1250, N-(4-hydroxytetrahydrofuran-3-yl)-7-(methylamino)-5-(1-((R)-tetrahydro-2H-pyran-3-yl)-1H-pyrrol[2,3-b]pyridin-3-yl)pyrazol[1,5-a]pyrimidine-3-carboxamide] |
| < 0.2 nM | CNc1cc(Nc2cccn(C3CCOCC3)c2=O)nc2c(C(=O)N[C@H]3CC[C@H](OC)C3)cnn12 [I-1194] |
| 0.2 to 1 nM | CNc1cc(Nc2cccn([C@H]3C[C@@H]3OC)c2=O)nc2c(C(=O)N[C@H]3CC[C@@H]3OC)cnn12 [I-1234] |
| 1 to 10 nM | CNc1cc(-c2cn(C3CCOCC3)c3ncccc23)nc2c(C(=O)N[C@H]3CC[C@@H]3O)cnn12 [I-1405] |
| < 0.2 nM | CNc1cc(-c2cn([C@@H]3CCCOC3)c3ncccc23)nc2c(C(=O)NC3CCC3O)cnn12 (mixture of isomers) [I-1257, N-(2-hydroxycyclobutyl)-7-(methylamino)-5-(1-((R)-tetrahydro-2H-pyran-3-yl)-1H-pyrrolo[2,3-b]pyridin-3-yl)pyrazolo[1,5-a]pyrimidine-3-carboxamide] |
| 0.2 to 1 nM | CNc1cc(Nc2cccn(C(C)C)c2=O)nc2c(C(=O)N[C@@H]3COC[C@@H]3O)cnn12 [I-1301] |
| 1 to 10 nM | CNc1cc(Nc2cccn(C3CCOCC3)c2=O)nc2c(C(=O)N[C@@H]3CC[C@H](O)C3)cnn12 [I-1264] |
| > 10 nM | CNc1cc(Nc2cccn([C@H]3CCC[C@H]3OC)c2=O)nc2c(C(=O)NC3CC3)cnn12 [I-525] |
| < 0.2 nM | CNc1cc(Nc2cccn([C@@H]3CCC[C@H](O)C3)c2=O)nc2c(C(=O)N[C@H]3CC[C@@H]3OC)cnn12 [I-1191] |
| 1 to 10 nM | CNc1cc(Nc2cccn(C3CC(F)(F)C3)c2=O)nc2c(C(=O)N[C@@H]3CCC[C@@](C)(O)C3)cnn12 [I-1208] |
| 0.2 to 1 nM | CNc1cc(Nc2cccn([C@H]3CCC[C@@H](C#N)C3)c2=O)nc2c(C(=O)NC3CC3)cnn12 [I-1245] |
| 0.2 to 1 nM | CNc1cc(Nc2cccn([C@H]3CCC[C@H](O)C3)c2=O)nc2c(C(=O)N[C@H]3CC[C@@H]3OC)cnn12 [I-1396] |
| < 0.2 nM | CNc1cc(Nc2cccn3ccnc23)nc2c(C(=O)N[C@H]3CCC[C@]3(C)O)cnn12 [I-1239] |
| 0.2 to 1 nM | CNc1cc(Nc2cccn([C@@H]3CCCOC3)c2=O)nc2c(C(=O)N[C@@H]3C[C@H]3OC)cnn12 [I-1269] |
| > 10 nM | CNc1cc(-c2cn([C@@H]3CCC[C@H]3OC)c3ncccc23)nc2c(C(=O)NC3CCC3O)cnn12 (mixture of isomers) [I-1341, N-(2-hydroxycyclobutyl)-5-(1-((1R,2R)-2-methoxycyclopentyl)-1H-pyrrolo[2,3-b]pyridin-3-yl)-7-(methylamino)pyrazolo[1,5-a]pyrimidine-3-carboxamide] |
| < 0.2 nM | CNc1cc(Nc2cccn([C@@H]3CCC[C@@H]3O)c2=O)nc2c(C(=O)N[C@H]3CC[C@@H]3OC)cnn12 [I-1394] |
| > 10 nM | CNc1cc(-c2cn(C3CCOCC3)c3ncccc23)nc2c(C(=O)N[C@H]3CC[C@@H]3OC)cnn12 [I-1329] |
| < 0.2 nM | CNc1cc(-c2cn(C3CC3)c3ncccc23)nc2c(C(=O)N[C@H]3CCC[C@]3(C)O)cnn12 [I-1335] |
| < 0.2 nM | CNc1cc(Nc2cccn([C@@H]3CCCOC3)c2=O)nc2c(C(=O)N[C@@H]3CCC[C@@](C)(OC)C3)cnn12 [I-1236] |
| > 10 nM | CNc1cc(Nc2cccn3ccnc23)nc2c(C(=O)N[C@H]3COC[C@H]3O)cnn12 [I-1313] |
| < 0.2 nM | CNc1cc(-c2cn([C@@H]3CCCOC3)c3ncccc23)nc2c(C(=O)N[C@@H]3COC[C@@H]3O)cnn12 [I-1184] |

| Kd | Compound |
| --- | --- |
| 1 to 10 nM | CNc1cc(Nc2cccn([C@@H]3C[C@H]3F)c2=O)nc2c(C(=O)NCC(C)(C)CO)cnn12 [I-1399] |
| 1 to 10 nM | CNc1cc(-c2cn(C(C)C)c3ncc(F)cc23)nc2c(C(=O)N[C@@H]3CC[C@@H]3O)cnn12 [I-1386] |
| < 0.2 nM | CNc1cc(Nc2cccn(C3CCOCC3)c2=O)nc2c(C(=O)N[C@@H]3CCC[C@@](C)(OC)C3)cnn12 (stereo in doubt) [I-1274, N-(3-methoxy-3-methylcyclohexyl)-7-(methylamino)-5-((2-oxo-1-(tetrahydro-2H-pyran-4-yl)-1,2-dihydropyridin-3-yl)amino)pyrazolo[1,5-a]pyrimidine-3-carboxamide] |
| < 0.2 nM | CNc1cc(Nc2cccn([C@@H]3CC[C@@H]3O)c2=O)nc2c(C(=O)N[C@H]3CC[C@@H]3OC)cnn12 [I-1351] |
| 0.2 to 1 nM | CNc1cc(Nc2cccn(-c3ccccn3)c2=O)nc2c(C(=O)N[C@H]3C[C@@H]3OC)cnn12 [I-1412] |
| < 0.2 nM | CNc1cc(Nc2cccn(-c3ccc(C)nc3)c2=O)nc2c(C(=O)N[C@@H]3CCC[C@@H](OC)C3)cnn12 [I-1189] |
| < 0.2 nM | CNc1cc(Nc2cccn([C@@H]3CCCN(CCC#N)C3)c2=O)nc2c(C(=O)NC3CC3)cnn12 [I-1346, (R)-5-((1-(1-(2-cyanoethyl)piperidin-3-yl)-2-oxo-1,2-dihydropyridin-3-yl)amino)-N-cyclopropyl-7-(methylamino)pyrazolo[1,5-a]pyrimidine-3-carboxamide] |
| < 0.2 nM | CNc1cc(Nc2cccn(-c3nn(C)cc3F)c2=O)nc2c(C(=O)NC3CC3)cnn12 [I-1275] |
| 1 to 10 nM | CNc1cc(Nc2cccn(C(C)C)c2=O)nc2c(C(=O)N[C@H]3CC[C@@H](O)C3)cnn12 [I-1265] |
| < 0.2 nM | CNc1cc(Nc2cccn([C@@H]3CCC[C@H](O)C3)c2=O)nc2c(C(=O)N[C@@H]3CC[C@H]3OC)cnn12 [I-1190] |
| < 0.2 nM | CNc1cc(Nc2cccn3ccnc23)nc2c(C(=O)N[C@@H]3CCC[C@@]3(C)O)cnn12 [I-1238] |
| 0.2 to 1 nM | CNc1cc(Nc2cccn(C3CCOCC3)c2=O)nc2c(C(=O)N[C@H]3CCC[C@]3(C)O)cnn12 (stereo in doubt) [I-1254, N-(2-hydroxy-2-methylcyclopentyl)-7-(methylamino)-5-((2-oxo-1-(tetrahydro-2H-pyran-4-yl)-1,2-dihydropyridin-3-yl)amino)pyrazolo[1,5-a]pyrimidine-3-carboxamide] |
| > 10 nM | CNc1cc(Nc2cccn([C@@H]3CCCOC3)c2=O)nc2c(C(=O)N[C@H]3C[C@@H]3OC)cnn12 [I-1414] |
| 0.2 to 1 nM | CNc1cc(Nc2cccn3ccnc23)nc2c(C(=O)N[C@@H]3COC[C@@H]3O)cnn12 [I-1261] |
| > 10 nM | CNc1cc(Nc2cccn(C3CCOCC3)c2=O)nc2c(C(=O)N[C@@H]3CC[C@H](O)C3)cnn12 [I-1357] |
| < 0.2 nM | CNc1cc(Nc2cccn([C@H]3CCCN(CCF)C3)c2=O)nc2c(C(=O)N[C@H]3CC[C@@H]3OC)cnn12 [I-1215] |
| 1 to 10 nM | CNc1cc(Nc2cccn([C@@H]3CCN(CCF)C3)c2=O)nc2c(C(=O)N[C@H]3CC[C@@H]3OC)cnn12 [I-1332] |
| > 10 nM | CNc1cc(-c2cn([C@@H]3CCCOC3)c3ncccc23)nc2c(C(=O)N[C@H]3CC[C@@H]3OC)cnn12 [I-1268] |
| < 0.2 nM | CNc1cc(Nc2cccn(C(C)C)c2=O)nc2c(C(=O)N[C@H]3COC[C@H]3O)cnn12 [I-1302] |
| 1 to 10 nM | CNc1cc(Nc2cccn([C@H]3CCC[C@H](OC)C3)c2=O)nc2c(C(=O)N[C@H]3CC[C@@H]3OC)cnn12 [I-1375] |
| 1 to 10 nM | CNc1cc(Nc2cccn(-c3cccc(F)c3)c2=O)nc2c(C(=O)N[C@@H]3COC[C@@H]3O)cnn12 [I-1303] |
| < 0.2 nM | CNc1cc(Nc2cccn(C(C)C)c2=O)nc2c(C(=O)N[C@@H]3CCC[C@@](C)(O)C3)cnn12 [I-1337] |
| < 0.2 nM | CNc1cc(Nc2cccn(C3CCCCC3)c2=O)nc2c(C(=O)N[C@@H]3COC[C@@H]3O)cnn12 [I-1348] |
| 1 to 10 nM | CNc1cc(Nc2cccn([C@@H]3CCCOC3)c2=O)nc2c(C(=O)N[C@H]3C[C@@H]3OC)cnn12 [I-1270] |
| > 10 nM | CNc1cc(Nc2cccn([C@H]3CCCC[C@H]3OC)c2=O)nc2c(C(=O)N[C@@H]3CC[C@H]3OC)cnn12 [I-1376] |
